# Source: ChEMBL document CHEMBL2074215, “The effects of pluronics block copolymers and Cremophor EL on intestinal lipoprotein processing and the potential link with P-glycoprotein in Caco-2 cells” (Pharm Res, 2003)
# Biological target: ATP-dependent translocase ABCB1 (Homo sapiens, UniProt P08183)
# Assay: TP_TRANSPORTER: transepithelial transport of cyclosporin A in Caco-2 cells
# Format: functional, cell-based
# ATP-dependent translocase ABCB1, sequence (P08183 whole entry): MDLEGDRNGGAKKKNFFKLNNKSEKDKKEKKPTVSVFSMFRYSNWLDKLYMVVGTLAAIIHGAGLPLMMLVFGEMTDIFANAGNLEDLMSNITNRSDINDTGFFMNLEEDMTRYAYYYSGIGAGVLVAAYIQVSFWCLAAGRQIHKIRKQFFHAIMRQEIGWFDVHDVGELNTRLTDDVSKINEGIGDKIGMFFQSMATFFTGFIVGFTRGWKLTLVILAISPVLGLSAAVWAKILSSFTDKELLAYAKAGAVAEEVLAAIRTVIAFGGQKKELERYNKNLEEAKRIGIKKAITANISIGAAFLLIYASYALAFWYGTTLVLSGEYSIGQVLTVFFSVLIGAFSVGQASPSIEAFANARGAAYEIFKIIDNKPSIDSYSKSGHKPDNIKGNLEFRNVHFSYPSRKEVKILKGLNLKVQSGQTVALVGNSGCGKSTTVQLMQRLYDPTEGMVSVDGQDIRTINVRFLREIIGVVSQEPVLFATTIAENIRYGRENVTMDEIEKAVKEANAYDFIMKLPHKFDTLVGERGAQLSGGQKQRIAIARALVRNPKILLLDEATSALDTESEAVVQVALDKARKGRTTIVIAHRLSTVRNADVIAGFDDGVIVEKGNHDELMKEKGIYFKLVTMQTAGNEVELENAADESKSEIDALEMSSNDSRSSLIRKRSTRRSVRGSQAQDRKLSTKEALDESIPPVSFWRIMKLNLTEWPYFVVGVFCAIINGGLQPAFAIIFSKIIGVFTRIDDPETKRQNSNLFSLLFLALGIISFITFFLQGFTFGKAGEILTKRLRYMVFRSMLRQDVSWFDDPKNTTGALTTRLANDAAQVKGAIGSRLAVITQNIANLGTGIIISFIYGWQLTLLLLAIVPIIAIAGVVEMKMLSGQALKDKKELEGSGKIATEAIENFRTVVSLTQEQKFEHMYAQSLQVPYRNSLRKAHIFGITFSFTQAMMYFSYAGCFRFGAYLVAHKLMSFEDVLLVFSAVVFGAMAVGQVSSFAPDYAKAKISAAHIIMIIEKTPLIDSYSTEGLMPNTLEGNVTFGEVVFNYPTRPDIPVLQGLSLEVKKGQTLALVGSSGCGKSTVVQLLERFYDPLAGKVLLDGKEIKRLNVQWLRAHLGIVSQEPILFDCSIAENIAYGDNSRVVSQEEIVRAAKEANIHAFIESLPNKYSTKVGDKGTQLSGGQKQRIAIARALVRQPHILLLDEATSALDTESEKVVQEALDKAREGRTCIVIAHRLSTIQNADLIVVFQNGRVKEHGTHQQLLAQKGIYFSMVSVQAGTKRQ
row,Activity,Sequence
1,inhibitor [+],CREMOPHOR EL
2,inhibitor [+],PLURONIC L81
